The values that follow come from US12285426B2, “Combination serotonin specific reuptake inhibitor and serotonin 1A receptor partial agonist for reducing L-DOPA-induced dyskinesia” (The Research Foundation for The State University of new York, priority 2018, dated 2025).

One data set relates to DRN 5-HT neurons. Description: Example 3: in vivo single-unit recording of DRN 5-HT neurons. Details: species or system rat. The conditions noted are these: 8-OH-DPAT 1 μg/kg i.v.; WAY-100635 100 μg/kg i.v. From the text:
Burr holes (˜1 mm in diameter) were drilled in the skull overlying the DRN of non-lesioned rats. Prior to experimentation all animals were anesthetized with urethane (1.5 g/kgi.p.) and placed in a stereotaxic apparatus. Bipolar stimulating/recording electrodes were implanted in the frontal cortex and DRN on the right side using a micromanipulator (coordinates from Bregma: AP: 3.2 mm; ML: 0.8 mm lateral; DV: 4.4 mm ventral (frontal cortex) or AP: 7.8 mm; ML 3.1 mm; DV: 7.5 mm with the manipulator angled 30 degrees toward Bregma) as previously described [Chakroborty 2017].
Electrophysiology: Recording microelectrodes were manufactured from 2.0 mm OD borosilicate glass capillary tubing and filled with sodium chloride (2M) solution. […] Temperature was monitored using a rectal probe and maintained at 37 C.° using a heating pad (VI-20F, Fintronics Inc., Orange, CT). […] Once isolated, recordings consisted of basal (pre-drug), saline vehicle, and drug-treatment-(see below) induced changes in spike activity recorded in a series of 3 min duration epochs.
All compounds and physiological 0.9% saline were prepared daily and administered intravenously (i.v.) through the lateral tail vein to enable rapid examination of potential acute effects of vehicle or drug on DRN neuronal activity. […] DRN 5-HT neuron activity was recorded prior to and immediately following drug administration as described above.

Data set [1] deals with L-DOPA-primed 6-OHDA-lesioned rats; 5-HT1AR. The conditions noted are these: VZD 10 mg/kg, WAY 0.5 mg/kg, LD 6 mg/kg s.c.
Data set [2] concerns 6-OHDA-lesioned rats, L-DOPA-induced dyskinesias. In words: Example 2: LIDs scoring in unilateral 6-OHDA-lesioned rats. The data set is classed as in vivo, rat. Conditions: vilazodone 10 mg/kg or escitalopram 12.5 mg/kg + L-DOPA 5 mg/kg, 2 weeks. Here is the method: 6-OHDA-induced dopaminergic lesions: Adult male Sprague-Dawley rats were randomly assigned to groups receiving either a 6-OHDA or sham lesion. […] [[…] 2019]. […] Rats were treated for 5 consecutive days/week (Mon-Fri), for 2 weeks. […] All rats were evaluated three times per week for the presence of L-DOPA-induced dyskinesias (LIDs) (Wed-Fri) and once for the stepping test (Tue). […] Scores were given over 1 min epochs and classified as axial, limb, orolingual and locomotive. […] The severity of each LID was scored using a standard scale. Each dyskinetic behavior was given an intensity and frequency score, which were then multiplied. The average sum of the products of each LID was determined in each animal.

The subject of data set [3] is L-DOPA-primed 6-OHDA-lesioned rats; 5-HT1BR. Description: Experiment 3: AIMs with 5-HT1BR antagonist NAS-181. The data set is classed as in vivo, rat. Conditions: VZD 10 mg/kg, NAS-181 3.0 mg/kg, LD 6 mg/kg s.c.
Protocol: All 6-OHDA-lesioned rats (n=17) were tested on the FAS prior to treatment regimens to establish baseline motor performance. Three-weeks post-surgery, all rats were primed with L-DOPA (6 mg/kg, s.c.) for 14 days.
Beginning 10 min post-treatment, a trained and blinded observer assigned a severity score (0-4) to each of the ALO AIMs based on 1 min ratings every 10 min for 3 h: 0, not present; 1, present from 1-29 s; 2, present 30-59s; 3, present all 60 s, but interruptible by a cylinder tap; 4, present 60 s and not interruptible by a cylinder tap.
In data set [4] the target is T1, 5-HT1A receptor expressed in SF9 cells (Homo sapiens, UniProt P08908).
T1 construct: expressed in transfected cells; host or cells: SF9 cells
T1 sequence (P08908 1-422): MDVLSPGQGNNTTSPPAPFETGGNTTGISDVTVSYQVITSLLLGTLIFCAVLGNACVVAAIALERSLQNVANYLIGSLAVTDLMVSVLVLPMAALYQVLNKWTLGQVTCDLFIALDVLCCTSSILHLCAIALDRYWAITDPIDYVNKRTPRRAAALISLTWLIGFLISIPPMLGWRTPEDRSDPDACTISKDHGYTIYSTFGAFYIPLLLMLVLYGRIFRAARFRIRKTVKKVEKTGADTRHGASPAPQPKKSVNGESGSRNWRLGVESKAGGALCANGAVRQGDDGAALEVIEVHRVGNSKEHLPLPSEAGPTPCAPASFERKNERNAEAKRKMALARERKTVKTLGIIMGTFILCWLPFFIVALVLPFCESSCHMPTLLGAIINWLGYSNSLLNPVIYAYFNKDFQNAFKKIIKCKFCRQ
The conditions noted are these: cited from earlier work.

The test system of data set [5] is 6-OHDA-lesioned rats, forelimb akinesia. In words: Example 2: stepping test. The data set is classed as in vivo, rat. The conditions noted are these: 60 minutes post L-DOPA.
Protocol: 6-OHDA-induced dopaminergic lesions: Adult male Sprague-Dawley rats were randomly assigned to groups receiving either a 6-OHDA or sham lesion. All rats received desipramine (10 mg/kg i.p.) 30 min prior to surgery to prevent the lesioning of norepinephrine neurons by 6-OHDA. A single injection of 6-OHDA (8 μg of 6-OHDA free base in 4 p of 0.1% ascorbic acid) was delivered into the right medial forebrain bundle (coordinates taken from bregma: −4.3 mm AP, 1.6 mm ML, −8.3 mm DV). The same experimental treatment was performed for the sham-operated rats using vehicle (4 μl of 0.1% ascorbic acid). A standard stepping test was used to evaluate the effectiveness of the 6-OHDA lesion.
Rats were treated for 5 consecutive days/week (Mon-Fri), for 2 weeks. On the second day of each week, stepping tests were performed prior to drug administration, and 60 minutes post L-DOPA treatment.
For data set [6] the following is noted: in vivo; cited from earlier work.
Data set [7] has as its system 6-OHDA-lesioned rats, forelimb akinesia. Description: Experiment 1: forepaw adjusting steps (FAS). The data set is classed as in vivo, rat. Conditions: LD 6 mg/kg alone or with VZD 10/20 mg/kg. The text has this: Conti et al., 2014). […] Forepaw adjusting steps (FAS): The FAS test is a measure of forelimb akinesia performed according to previous protocols (Bishop et al., 2012; Chang et al., 1999). Data are presented as mean percent intact stepping where the sum of the total steps with the lesioned forepaw was divided by the total steps with the unlesioned forepaw multiplied by 100. Lower percent intact scores indicate greater forelimb akinesia. Prior to baseline, rats received 2 acclimation periods. On-treatment FAS was performed 60 min post-L-DOPA.

In data set [8] the test system is lesion-induced motor deficits. In words: FIG. 23D: % intact stepping. The data set is classed as in vivo. Conditions: L-DOPA alone or with AMA 40 mg/kg and/or VZD 2.5 mg/kg.
Data set [9] concerns 6-OHDA-lesioned rats, L-DOPA-induced dyskinesia. In words: Experiment 1: AIMs, established LID in L-DOPA-primed hemi-parkinsonian rats. The conditions noted are these: LD 6 mg/kg s.c. vs L-DOPA vehicle. The data set is classed as in vivo, rat.
Data set [10] relates to striatum and DRN monoamines and metabolites. Description: Experiment 1: HPLC of striatal and dorsal raphe tissue monoamines. The data set is classed as in vivo, rat.
Protocol: Rats (n=30) were rendered hemi-parkinsonian with unilateral 6-OHDA lesions of the left MFB. Three-weeks post-lesion, animals were divided into 2 equally disabled groups, measured by forepaw adjusting steps (FAS, see below). One group (n=8) began receiving 14 days of daily vehicle (0.9% NaCl+0.1% ascorbic acid) and the other (n=22) received L-DOPA methyl ester (6 mg/kg, s.c.; Sigma)+DL-serine 2-(2,3,4-trihydroxybenzyl) hydrazine hydrochloride (benserazide; 15 mg/kg, s.c.; Sigma), hereafter L-DOPA, dissolved in vehicle at a volume of 1 mL/kg. […] Thereafter, L-DOPA-treated animals with Axial, Limb, and Orolingual (ALO) AIMs (see description below, FIG. 1A)<30 were excluded from the study and the remaining L-DOPA-treated animals were divided into 3 equally dyskinetic groups. […] Daily injections continued over 23 days, with behavior assayed on Days 15, 22, 29, and 36. On Day 37, animals were killed 60 min post-treatment. Left and right dorsal striata and DRN were dissected and flash frozen for HPLC analyses.
High-performance liquid chromatography (HPLC): HPLC, a method for semi-automated catecholamine analysis with coulometric detection, was performed according to prior protocols (Bishop et al., 2009) to determine the tissue levels of monoamines, their metabolites, and monoamine turnover in the striatum and DRN. The limit of detection for DOPAC, DA, 5-hydroxyindoleacetic acid (5-HIAA) and 5-HT was 10^−10 M. Final oxidation current values were plotted on a standard curve from 10^−6 M to 10^−9 M and expressed as pg of monoamine or metabolite per mg of tissue unless otherwise specified.
On the final treatment day, animals were sacrificed 60 min post-LD treatment and left and right striata and dorsal raphe nucleus (DRN) were collected for high performance liquid chromatography (HPLC) analysis. Values (means±standard mean error) are expressed as picograms of monoamine or metabolite per milligram wet tissue weight. Turnover estimates were determined by dividing a subject's metabolite value by its corresponding monoamine.
Data set [11] deals with striatal c-Fos, PPD, PPE, PPT, 5-HT1AR mRNA. In words: Experiment 2: real-time RT-PCR of striatal gene expression.
The subject of data set [12] is 6-OHDA-lesioned rats, forelimb akinesia. In words: Experiment 2: forepaw adjusting steps (FAS). The format is in vivo, rat. Conditions: LD 6 mg/kg alone or with VZD. From the text:
Forepaw adjusting steps (FAS): The FAS test is a measure of forelimb akinesia performed according to previous protocols (Bishop et al., 2012; Chang et al., 1999). Data are presented as mean percent intact stepping where the sum of the total steps with the lesioned forepaw was divided by the total steps with the unlesioned forepaw multiplied by 100. Lower percent intact scores indicate greater forelimb akinesia. Prior to baseline, rats received 2 acclimation periods. On-treatment FAS was performed 60 min post-L-DOPA.

Where [13] appears, read: Dorsal Raphe Nucleus, VZD(0)+LD(6) mg/kg s.c.

On to `COc1ccccc1N1CCN(CCN(C(=O)C2CCCCC2)c2ccccn2)CC1.O=C(O)/C=C\C(=O)O` [WAY100635, N-[2-[4(2-Methoxyphenyl)-1-piperazinyl]ethyl]-N-2-pyridinylcyclohexanecarboxamide maleate salt], for which the “spontaneous firing of DRN 5-HT neuron” value in the data set on DRN 5-HT neurons is recorded as “return to baseline firing”. In addition, the “summed ALO AIMs” value in [1] was “partially reversed the anti-dyskinetic efficacy of Vilazodone”. Moreover, the LIDs severity entry in [2] is “reverses the beneficial effects of vilazodone on LIDs”.

`C1=C(CN2CCOCC2)COc2c1cccc2OC[C@H]1CNCCO1.CS(=O)(=O)O` [NAS-181, (R)-(+)-2-(3-morpholinomethyl-2H-chromen-8-yl) oxymethyl-morpholine methane-sulfonate]: the “ALO AIMs” value in [3] is given as “did not significantly alter AIMs or their reduction by Vilazodone”.

Consider `Br.CCCN(CCC)C1CCc2cccc(O)c2C1` (stereo not drawn) [8-OH-DPAT, 8-hydroxy-2-(dipropylamino) tetralin hydrobromide], for which the “spontaneous firing of DRN 5-HT neuron” value in the data set with DRN 5-HT neurons is “suppressed the spontaneous firing of a DRN neuron”. Further, the “increase of [35S]GTPyS binding compared to vehicle” value in data set [4] is “eightfold”.

For `CN(C)CCC[C@@]1(c2ccc(F)cc2)OCc2cc(C#N)ccc21` [Escitalopram], in data set [2], the LIDs severity entry is on record as “significantly reduced LIDs severity”. Further, the “forelimb akinesia / L-DOPA therapeutic (prokinetic) efficacy” value in data set [5] is reported as “affected L-DOPA therapeutic efficacy”.

As for `N[C@@H](Cc1ccc(O)c(O)c1)C(=O)O` [L-DOPA, L-3,4-dihydroxyphenylalanine], in data set [6], the “fraction crossing the blood-brain barrier” value is recorded as 5-10%. Moreover, in data set [7], the “FAS motor performance vs baseline” value is reported as “significant improvements on motor performance over baseline”. For the same compound, the “% intact stepping” value in data set [8] is “reversed lesion-induced motor deficits”. Moreover, the “LID during 14 days of priming” value in data set [9] is listed as “significantly greater LID”. In data set [10] (setting [13]), the 5-HIAA is reported as 2778 pg/mg wet tissue weight, the 5-HT turned out to be 5457 pg/mg wet tissue weight, the “5-HT Turnover” value was 0.57 and the DA was found to be 112 pg/mg wet tissue weight. In addition, in [10] (setting [13]), the “DA Turnover” value worked out at 10.3 and the DOPAC came out at 1114 pg/mg wet tissue weight. In [10] (LD 6 mg/kg), the “DRN DA, DOPAC and DA Turnover” value is “significantly increased DRN levels of DA, DOPAC and DA Turnover”. Further, in data set [11] (lesioned striata, LD 6 mg/kg, VZD 20 mg/kg, day 23), the “striatal PPE mRNA” value is on record as “significantly increased PPE in the lesioned striata”. Moreover, the “striatal PPD mRNA” value in data set [11] (lesioned striata, LD 6 mg/kg, VZD 10/20 mg/kg, day 23) is recorded as “significantly increased PPD in the lesioned striata”. The “striatal c-Fos mRNA” value in [11] (lesioned striata, LD 6 mg/kg, VZD 10 or 20 mg/kg, day 23) was “potentiated c-Fos in lesioned striata”. The “striatal PPT mRNA” value in [11] (rat, in vivo) was “did not increase striatal PPT”. In data set [12], the FAS vs baseline entry was “significant increases in motor ability on each test day”.
